Like-named read-outs stand apart in the source and are kept apart here.
Legend:
Type in all cases: in vivo
[1] = system: Galium (catchweed bedstraw, Galium aparine); experiment: Test A postemergence; conditions: Galium, post-emergence, 240 h; for pest or weed control at 125 g/ha: 125 g ai/ha
Summary of the method: (§1)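 Seeds sprayed preemergence with a directed soil spray, or plants at 2 to 10 cm height and one- to two-leaf stage sprayed postemergence, with test chemicals in a non-phytotoxic solvent mixture containing surfactant, in loam soil–sand blend. Injury rated visually against untreated controls after about 10 d in greenhouse, 0 (no effect) to 100 (complete control).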

[2] = system: barnyardgrass (Echinochloa crus-galli); experiment: Test A postemergence; conditions: Echinochloa crus-galli, post-emergence, 240 h; for pest or weed control at 125 g/ha: 125 g ai/ha; for pest or weed control at 500 g/ha: 500 g ai/ha, visual injury, approx. 10 d
Summary of the method: as §1

[3] = system: blackgrass (Alopecurus myosuroides); experiment: Test A postemergence; conditions: Alopecurus myosuroides, post-emergence, 240 h; for pest or weed control at 125 g/ha: 125 g ai/ha
Summary of the method: as §1

[4] = system: corn (Zea mays); experiment: Test A postemergence; conditions: Zea mays, post-emergence, 240 h; for plant injury at 125 g/ha / Corn plant response rating (crop injury, 0 = no effect, 100 = complete kill) at 500 g/ha: Postemergence; for plant injury at 125 g/ha: visual rating about 10 d after treatment, read-out: Corn plant response rating (0 to 100 scale); for Corn plant response rating (crop injury, 0 = no effect, 100 = complete kill) at 500 g/ha: 500 g ai/ha, visual injury, approx. 10 d
Summary of the method: as §1

[5] = system: giant foxtail (Setaria faberii); experiment: Test A postemergence; conditions: Setaria faberi, post-emergence, 240 h; for pest or weed control at 125 g/ha: 125 g ai/ha; for pest or weed control at 500 g/ha: 500 g ai/ha, visual injury, approx. 10 d
Summary of the method: as §1

[6] = system: pigweed (Amaranthus retroflexus); experiment: Test A postemergence; conditions: Amaranthus retroflexus, post-emergence, 240 h; for pest or weed control at 125 g/ha: 125 g ai/ha; for pest or weed control at 500 g/ha: 500 g ai/ha, visual injury, approx. 10 d
Summary of the method: as §1

[7] = system: ragweed (common ragweed, Ambrosia elatior); experiment: Test A postemergence; conditions: Ambrosia artemisiifolia, post-emergence, 240 h; for pest or weed control at 125 g/ha: 125 g ai/ha
Summary of the method: as §1

[8] = system: ryegrass, Italian (Italian ryegrass, Lolium multiflorum); experiment: Test A postemergence; conditions: Lolium multiflorum, post-emergence, 240 h; for pest or weed control at 125 g/ha: 125 g ai/ha
Summary of the method: as §1

[9] = system: wheat (Triticum aestivum); experiment: Test A postemergence; conditions: Triticum aestivum, post-emergence, 240 h; for plant injury at 125 g/ha: 125 g ai/ha; for plant injury at 500 g/ha: 500 g ai/ha, visual injury, approx. 10 d
Summary of the method: as §1

[10] = system: barnyardgrass (Echinochloa crus-galli); experiment: Test B flooded paddy test; conditions: Echinochloa crus-galli, Flood, 250 g ai/ha
Summary of the method: (§2)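 Greenhouse paddy pots with 2-leaf stage plants received compound by direct addition to floodwater 3 cm deep, kept at that level. Scored visually at 13–15 d versus controls (0 no effect; 100 complete control).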

[11] = system: ducksalad (Heteranthera limosa); experiment: Test B flooded paddy test; conditions: Heteranthera limosa, Flood, 250 g ai/ha
Summary of the method: as §2

[12] = system: rice (Oryra sativa); experiment: Test B flooded paddy test; conditions: Oryza sativa, Flood, 250 g ai/ha
Summary of the method: as §2

[13] = system: sedge, umbrella (small-flower umbrella sedge, Cyperus difformis); experiment: Test B flooded paddy test; conditions: Cyperus difformis, Flood, 250 g ai/ha
Summary of the method: as §2

[14] = Postemergence, visual rating about 10 d after treatment, read-out: Barnyardgrass plant response rating (0 to 100 scale, 0 no effect, 100 complete control)
[15] = Postemergence, 0 to 100 scale (0 no effect, 100 complete control), read-out: Plant response rating, Barnyardgrass
[16] = 0 to 100 scale (0 no effect, 100 complete control)
[17] = Postemergence, visual rating about 10 d after treatment, read-out: Foxtail, Giant plant response rating (0 to 100 scale)
[18] = Postemergence, 0 to 100 scale (0 no effect, 100 complete control), read-out: Plant response rating, Foxtail, Giant
[19] = Postemergence, visual rating about 10 d after treatment, read-out: Pigweed plant response rating (0 to 100 scale)
[20] = Postemergence, 0 to 100 scale (0 no effect, 100 complete control), read-out: Plant response rating, Pigweed
[21] = Postemergence, visual rating about 10 d after treatment, read-out: Wheat plant response rating (0 to 100 scale)
[22] = Postemergence, 0 to 100 scale (0 no effect, 100 complete control), read-out: Plant response rating, Wheat
[23] = 360 h, visually evaluated after 13 to 15 d, read-out: Plant response rating, Barnyardgrass (0 to 100 scale where 0 is no effect and 100 is complete control)
[24] = 360 h, visually evaluated after 13 to 15 d, read-out: Plant response rating, Ducksalad (0 to 100 scale where 0 is no effect and 100 is complete control)
[25] = 360 h, visually evaluated after 13 to 15 d, read-out: Plant response rating, Rice (0 to 100 scale where 0 is no effect and 100 is complete control)
[26] = 360 h, visually evaluated after 13 to 15 d, read-out: Plant response rating, Sedge, Umbrella (0 to 100 scale where 0 is no effect and 100 is complete control)

Row | Compound | pest or weed control at 125 g/ha [2, 14] | pest or weed control at 500 g/ha [2, 15] | plant injury at 125 g/ha ([4]; 125 g ai/ha) | Corn plant response rating (crop injury, 0 = no effect, 100 = complete kill) at 500 g/ha [4, 16] | pest or weed control at 125 g/ha [5, 17] | pest or weed control at 500 g/ha [5, 18] | pest or weed control at 125 g/ha [6, 19] | pest or weed control at 500 g/ha [6, 20] | plant injury at 125 g/ha [9, 21] | plant injury at 500 g/ha [9, 22] | pest or weed control at 250 g/ha [10, 23] | pest or weed control at 250 g/ha [11, 24] | pest or weed control at 250 g/ha [12, 25] | pest or weed control at 250 g/ha [13, 26] | also measured
1 | CN1C[C@H](c2ccc(C(F)(F)F)cc2)[C@@H](C(=O)Nc2cccc(F)c2C#N)C1=O [Compound 1380] | 60% | 80% | 50% | 80% | 90% | 90% | 50% | 60% | 40% | 40% | 60% | 100% | 0% | 0% | pest or weed control at 125 g/ha ([1]; Postemergence, visual rating about 10 d after treatment, read-out: Galium plant response rating (0 to 100 scale)): 50%; pest or weed control at 500 g/ha ([1]; Postemergence, 500 g ai/ha, visual injury, 0 to 100 scale (0 no effect, 100 complete control), approx. 10 d, read-out: Plant response rating, Galium): 50%; pest or weed control at 125 g/ha ([3]; Postemergence, visual rating about 10 d after treatment, read-out: Blackgrass plant response rating (0 to 100 scale)): 40%; pest or weed control at 500 g/ha ([3]; Postemergence, 500 g ai/ha, visual injury, 0 to 100 scale (0 no effect, 100 complete control), approx. 10 d, read-out: Plant response rating, Blackgrass): 60%; pest or weed control at 125 g/ha ([7]; Postemergence, visual rating about 10 d after treatment, read-out: Ragweed plant response rating (0 to 100 scale)): 40%; pest or weed control at 500 g/ha ([7]; Postemergence, 500 g ai/ha, visual injury, 0 to 100 scale (0 no effect, 100 complete control), approx. 10 d, read-out: Plant response rating, Ragweed): 50%; pest or weed control at 125 g/ha ([8]; Postemergence, visual rating about 10 d after treatment, read-out: Ryegrass, Italian plant response rating (0 to 100 scale)): 50%; pest or weed control at 500 g/ha ([8]; Postemergence, 500 g ai/ha, visual injury, 0 to 100 scale (0 no effect, 100 complete control), approx. 10 d, read-out: Plant response rating, Ryegrass, Italian): 60%
2 | CN1C[C@H](c2nccs2)[C@@H](C(=O)Nc2ccccc2F)C1=O [Compound 773] |  |  |  |  |  |  |  |  |  |  |  |  |  |  | pest or weed control at 125 g/ha ([1]; postemergence, visual injury after approximately 10 d, 0 to 100 scale (0 no effect, 100 complete control), read-out: Plant response rating, Galium): 0%; pest or weed control at 125 g/ha ([2]; postemergence, visual injury after approximately 10 d, 0 to 100 scale (0 no effect, 100 complete control), read-out: Plant response rating, Barnyardgrass): 0%; pest or weed control at 125 g/ha ([3]; postemergence, visual injury after approximately 10 d, 0 to 100 scale (0 no effect, 100 complete control), read-out: Plant response rating, Blackgrass): 0%; Corn plant response rating (crop injury, 0 = no effect, 100 = complete kill) at 125 g/ha ([4]; 125 g ai/ha, postemergence, visual injury after approximately 10 d, 0 to 100 scale (0 no effect, 100 complete control)): 0%; pest or weed control at 125 g/ha ([5]; postemergence, visual injury after approximately 10 d, 0 to 100 scale (0 no effect, 100 complete control), read-out: Plant response rating, Foxtail, Giant): 0%; pest or weed control at 125 g/ha ([6]; postemergence, visual injury after approximately 10 d, 0 to 100 scale (0 no effect, 100 complete control), read-out: Plant response rating, Pigweed): 0%; pest or weed control at 125 g/ha ([7]; postemergence, visual injury after approximately 10 d, 0 to 100 scale (0 no effect, 100 complete control), read-out: Plant response rating, Ragweed): 0%; pest or weed control at 125 g/ha ([8]; postemergence, visual injury after approximately 10 d, 0 to 100 scale (0 no effect, 100 complete control), read-out: Plant response rating, Ryegrass, Italian): 0%; plant injury at 125 g/ha ([9]; postemergence, visual injury after approximately 10 d, 0 to 100 scale (0 no effect, 100 complete control), read-out: Plant response rating, Wheat): 0%; pest or weed control at 250 g/ha ([10]; scale of 0 to 100 where 0 is no effect and 100 is complete control, read-out: Barnyardgrass plant response rating): 0%; pest or weed control at 250 g/ha ([11]; scale of 0 to 100 where 0 is no effect and 100 is complete control, read-out: Ducksalad plant response rating): 0%; pest or weed control at 250 g/ha ([12]; scale of 0 to 100 where 0 is no effect and 100 is complete control, read-out: Rice plant response rating): 0%; pest or weed control at 250 g/ha ([13]; scale of 0 to 100 where 0 is no effect and 100 is complete control, read-out: Sedge, Umbrella plant response rating): 0%
3 | O=C1NCC(c2ccccc2)C1C(=O)Nc1ccccc1Oc1ccccc1 (stereo not shown) [Compound 1357] | 0% | 0% | 0% | 0% | 0% | 0% | 0% | 0% | 0% | 0% |  |  |  |  | 
4 | O=C1NCC(c2ccccc2)C1C(=O)Nc1cccnc1 (stereo not shown) [Compound 1356] | 0% | 0% | 0% | 0% | 0% | 0% | 0% | 0% | 0% | 0% |  |  |  |  | 
5 | O=C1NCC(c2ccccc2)C1C(=O)Nc1ccccc1 (stereo not shown) [Compound 1358] | 0% | 0% | 0% | 0% | 0% | 0% | 0% | 0% | 0% | 0% | 0% | 0% | 0% | 0% | 
6 | N#Cc1ccc(NC(=O)C2C(=O)NCC2c2ccccc2)cc1 (stereo not shown) [Compound 1355] | 0% | 0% | 0% | 0% | 0% | 0% | 0% | 0% | 0% | 0% |  |  |  |  | 

Reference: US12077503B2, “Substituted cyclic amides and their use as herbicides” (FMC CORPORATION, priority 2015, dated 2024)
